Test results taken from patent US10017535B2, “Amphiphilic compounds with neuroprotective properties” (USTAV ORGANICKE CHEMIE A BIOCHEMIE AV CR, v.v.i., priority 2014, dated 2018).
Where two headings read alike, the source gives them in different places.

Tests used:
[1] = target: T1, NR1-1a/NR2B NMDA receptor (Rattus norvegicus, UniProt P35439+Q00960); assay: Patch-clamp inhibition of glutamate-evoked currents at recombinant NMDA receptors in transfected HEK293 cells; format: cell-based
T1 construct: expressed in transfected cells; host or cells: HEK293 cells (ATCC CRL1573)
T1 sequence (Q00960 27-1482, other chains not shown): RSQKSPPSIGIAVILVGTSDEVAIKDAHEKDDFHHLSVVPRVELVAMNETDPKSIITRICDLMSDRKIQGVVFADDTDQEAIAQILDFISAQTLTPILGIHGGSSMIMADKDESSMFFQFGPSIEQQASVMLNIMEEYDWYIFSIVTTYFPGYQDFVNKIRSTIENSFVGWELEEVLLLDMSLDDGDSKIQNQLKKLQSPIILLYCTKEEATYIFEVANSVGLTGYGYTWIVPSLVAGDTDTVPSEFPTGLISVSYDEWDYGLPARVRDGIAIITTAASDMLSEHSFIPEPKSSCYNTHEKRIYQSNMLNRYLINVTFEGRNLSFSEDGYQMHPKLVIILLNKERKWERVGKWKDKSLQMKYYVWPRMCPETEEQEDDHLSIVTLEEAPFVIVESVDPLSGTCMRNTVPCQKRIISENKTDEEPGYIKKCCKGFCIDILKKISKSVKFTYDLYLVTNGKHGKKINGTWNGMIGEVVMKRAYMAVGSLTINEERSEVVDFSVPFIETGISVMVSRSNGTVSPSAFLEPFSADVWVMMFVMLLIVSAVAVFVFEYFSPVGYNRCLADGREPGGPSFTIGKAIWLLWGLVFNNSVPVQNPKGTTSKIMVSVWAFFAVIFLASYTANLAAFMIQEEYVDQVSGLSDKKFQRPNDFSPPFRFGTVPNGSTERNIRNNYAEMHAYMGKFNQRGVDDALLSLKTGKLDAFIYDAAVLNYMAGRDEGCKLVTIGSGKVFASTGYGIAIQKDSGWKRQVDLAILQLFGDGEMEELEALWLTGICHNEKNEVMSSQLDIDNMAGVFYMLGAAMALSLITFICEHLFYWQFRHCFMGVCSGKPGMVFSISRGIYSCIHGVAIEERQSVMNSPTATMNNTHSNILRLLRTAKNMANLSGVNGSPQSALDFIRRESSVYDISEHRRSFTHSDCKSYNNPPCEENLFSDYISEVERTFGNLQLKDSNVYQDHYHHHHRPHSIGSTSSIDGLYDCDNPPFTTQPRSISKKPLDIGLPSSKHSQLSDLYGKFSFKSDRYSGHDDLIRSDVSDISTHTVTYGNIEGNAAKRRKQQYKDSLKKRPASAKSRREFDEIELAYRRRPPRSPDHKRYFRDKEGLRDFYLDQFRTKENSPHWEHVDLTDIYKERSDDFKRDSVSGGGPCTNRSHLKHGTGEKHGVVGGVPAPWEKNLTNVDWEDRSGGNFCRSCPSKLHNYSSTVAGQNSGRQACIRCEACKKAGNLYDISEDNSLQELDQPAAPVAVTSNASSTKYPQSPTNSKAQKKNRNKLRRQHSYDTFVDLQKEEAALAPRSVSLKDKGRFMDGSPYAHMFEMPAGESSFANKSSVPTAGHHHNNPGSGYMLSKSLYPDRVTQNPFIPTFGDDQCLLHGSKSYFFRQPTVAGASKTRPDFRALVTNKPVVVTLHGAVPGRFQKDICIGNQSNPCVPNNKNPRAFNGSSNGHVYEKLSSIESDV
Outline: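 HEK293 cells co-transfected with rat NR1-1a/NR2B plus GFP were whole-cell patch-clamped 16-40 h post-transfection at −60 mV. Currents were evoked by 1 mmol·l^−1 glutamate with 10 μmol·l^−1 glycine in ECS pH 7.3, and steroid was co-applied in DMSO via fast perfusion. IC50 came from relative inhibition.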

[2] = test system: laboratory mice, strain CD-1; format: in vivo; conditions: intraperitoneally, 1 mg/kg; also: key: −: the desired effect was not observed; −/+: the desired effect was insufficient; +: the desired effect was observed
Protocol: (§1) In the Experimental Part 1 were used adults (30-35 g) male laboratory mice, strain CD-1 from Velaz facility, Czech Republic. Mice were housed in plastic boxes with a 12-hour light cycle (lights on at 7:00 pm). Mice had free access to food and water.
Thus there were prepared solutions of the four steroids for application rates of 0.1, 1, 10 and 100 mg/kg.
Laboratory mouse was chosen as a model organism for this experiment. The following experiments were performed as described in Front Behay. Neurosci.
The purpose of the primary behavioral testing was quickly determined the effect of compounds on CNS dependent functions and any signs of toxicity. A simplified modification Irwin test was selected with respect to the behavioral profile of NMDA receptor antagonists. Mice were tested individually. The study drug was administered intraperitoneally (Table 3) at a dose of 1 mg/kg. The control group consisted of individuals that received the CDX solution or saline.

[3] = test system: laboratory mice, strain CD-1; assay: Open field test (locomotor activity, sedative effect); as to Open Field Test No Evidence of Hyperlocomotion: key: −: the desired effect was not observed; −/+: the desired effect was insufficient; +: the desired effect was observed; as to Sedative Effect The Rapid Onset of Sedation at a Dose of 100 mg/kg: key: −: the desired effect was not observed; −/+: the desired effect was insufficient; +: the desired effect was observed; format: in vivo; conditions: for pathway in open field: dose 10 and 100 mg/kg, vs intact mice; for locomotor activity over time: higher dose of 10 resp. 100 mg/kg; for Open Field Test No Evidence of Hyperlocomotion / Sedative Effect The Rapid Onset of Sedation at a Dose of 100 mg/kg: intraperitoneally; for Open Field Test No Evidence of Hyperlocomotion: 0.1-100 mg/kg; for hyperlocomotion in open field: lower doses (below 10 mg/kg)
Protocol: as §1
Amphiphilic steroid compounds were dissolved in a solution of 3 g (2-hydroxypropyl)-β-cyclodextrin (CDX, Sigma-Aldrich) and 157 mg of citric acid ([…], Sigma-Aldrich) in 30 ml of distilled water, the pH was adjusted to 7.4 using sodium hydroxide (NaOH, Sigma-Aldrich). Thus there were prepared solutions of the four steroids for application rates of 0.1, 1, 10 and 100 mg/kg.
The efficacy of the studied compounds was compared to known NMDA antagonist is memantine (Sigma-Aldrich) at a dose of 5 mg/kg in rats, ketamine (Vétoquinol) at 10 mg/kg and dizocilpine (MK-801) (Sigma-Aldrich) at a dose of 0.3 mg/kg in mice. These three compounds were dissolved in saline (B Braun).
The substances at dose 0.1-100 mg/kg were administered before the test to mice intraperitoneally. As controls were used intact mice and mice that received CDX solution. Also, MK-801 (0.3 mg/kg) was used for comparison of effects of noncompetitive antagonist of NMDA receptors. From the experiment was evaluated overall track anywhere in the arena as an indicator of locomotor activity. In addition, it was judged a ten-minute segments track during each experiment. Based on these values, it was possible to determine the latency time of onset of action and changes in locomotor activity over time.
In this arrangement, the sedative effect of the studied compounds at the highest dose was evaluated. […] Over time was monitored locomotor activity and possible changes characterized by tremor, ataxia, restlessness, or sedation or general anesthesia (absence of response to stimuli, decreased muscle tone).

[4] = test system: NMDA lesion of the dorsal hippocampus in rats; assay: Active allothetic place avoidance (AAPA) after bilateral excitotoxic NMDA lesion of dorsal hippocampus; format: in vivo, rat Long-Evans strain; as to NMDA lession Improvement in Cognition in AAPA after NMDA Lession: key: −: the desired effect was not observed; −/+: the desired effect was insufficient; +: the desired effect was observed
Protocol: In the Experimental Part 2 were used adult (3 months old, 300-400 g) male rat Long-Evans strain. The animals come from herds Institute of Physiology ASCR. The rats were housed in clear plastic boxes with the same light cycle as in mice. Animals had free access to food and water. All experiments were carried out in the light of clay. All experiments were carried out in accordance with the Law on protection of animals against cruelty.
The anesthetized rats were used in operations isoflurane (3.5%, Baxter). To recall excitotoxic lesion of the dorsal hippocampus was applied 0.05 mol·l^−1 solution of NMDA (Sigma-Aldrich) in 0.4 mol·l^−1 phosphate buffer solution prepared by mixing 356 g Na2HPO4.12H2O (Mw358.14) in 4.2 l of distilled water and a solution of 62.4 g NaHPO4. 2H2O (Mw156.01) in 0.8 l of distilled water. The pH of the resulting solution of NMDA was adjusted to 7.4 with NaOH.
In this experiment, the neuroprotective effects were evaluated for amphiphilic steroid compounds. The procedure was performed according to Neuropharmacology 61, 61-68 (2011)
The rats were randomly divided into eleven groups. The control group included operated animals, which were injected by phosphate buffer […] into the hippocampus. In the second group, the animals had NMDA lesions of the hippocampus. The animals of the third group were applied clinically used NMDA antagonist memantine at a dose of 5 mg/kg after NMDA lesion. The other groups were administered the compounds at a dose of 1 mg/kg.
The test was performed in rotating arena with prohibited sector in the form of a circular sector (60°). If the rat entered the sector, its limbs received weak electrical impulse.
Test memory and spatial cognition in rats using AAPA was evaluated over four sessions, which are in healthy rats sufficient to achieve asymptotic level (Behay. Brain. Res. 189, 139-144 (2008)). To evaluate memory and spatial cognition was used data from the fourth session, and the number of entries into the forbidden sector and the maximum avoidance sector. […] After the experiment, the localization of the lesion was histologically verified.
Data were analyzed using the non parametric test of Maim Whitney criteria using the GraphPad. The difference was considered significant for p<0.05, for a non-significant tendency then for 0.05<p<0.075.

[5] = test system: laboratory mice, strain CD-1; assay: Forced swimming test (antidepressant effect); format: in vivo; conditions: reference substance ketamine (10 mg/kg)
Protocol: as §1
This assay was used to monitor the antidepressant effect. Animals float 6 minutes in acrylic cylinder in water at 24° C. A period of immobility is evaluated. The reduction is a manifestation of anti-depressant properties of drugs.

[6] = HEK293, read-out: Mean % change ± SD
[7] = calculated from relative steroid-induced inhibition, Hill's coefficient 1.2, read-out: IC50
[8] = 1 mg/kg after surgery, vs NMDA group
[9] = memantine 5 mg/kg after NMDA lesion

C[C@@]12CCC[C@H]1[C@@H]1CC[C@@H]3C[C@H](NC(=O)C(=O)O)CC[C@]3(C)[C@H]1CC2 [Compound 59, 2-(((3R,5R,8S,9S,10S,13S,14S)-10,13-Dimethylhexadecahydro-1H-cyclopenta[a]phenanthren-3-yl)amino)-2-oxoacetic acid] gave a melting point of 191 to 193 °C, an inhibition at 10 µM [1, 6] of 32 ± 5% and an IC50 [1, 7] of 23.2 µM.

Molecule C[C@@]12CCC[C@H]1[C@@H]1CC[C@@H]3C[C@H](NC(=O)CC(=O)O)CC[C@]3(C)[C@H]1CC2 [Compound 61] has a melting point of 126 to 128 °C, an IC50 [1] of 15.4 µM and an inhibition at 10 µM [1, 6] of 40 ± 5.7%.

In the case of C=C1CC[C@H]2[C@@H]3CC[C@@H]4C[C@H](OC(=O)CC(=O)O)CC[C@]4(C)[C@H]3CC[C@]12C [Compound 67, 3-(((3R,5R,8R,9S,10S,13S,14S)-10,13-Dimethyl-17-methylenehexadecahydro-1H-cyclo-penta[a]phenanthren-3-yl)oxy)-3-oxopropanoic acid], the “Behavioural Test No Evidence of Toxicity” value [2] is reported as “+”, the inhibition at 20 µM [1, 6] is reported as 53 ± 10.2% and the IC50 [1, 7] is reported as 18.9 µM. For the same molecule, the “pathway in open field” value [3] was “significant reduction”, the “locomotor activity over time” value [3] was “significant decrease” and the “Open Field Test No Evidence of Hyperlocomotion” value [3] was “+”. The “Sedative Effect The Rapid Onset of Sedation at a Dose of 100 mg/kg” value [3] was “+”, the “hyperlocomotion in open field” value [3] was “not (unlike groups with dizocilpine) observed hyperlocomotion” and the “maximum time avoiding the sector, fourth session of AAPA” value [4, 8] was “significantly increased”. The “number of entries into the forbidden sector, fourth session of AAPA” value [4, 8] was “significant reduction”.

For C=C1CC[C@H]2[C@@H]3CC[C@@H]4C[C@H](OC(=O)CCCC(=O)O)CC[C@]4(C)[C@H]3CC[C@]12C [Compound 69, 5-(((3R,5R,8R,9S,10S,13S,14S)-10,13-Dimethyl-17-methylenhexadecahydro-1H-cyclopenta[a]phenanthren-3-yl)oxy)-5-oxopentanoic acid], the “Behavioural Test No Evidence of Toxicity” value [2] was “+”, the inhibition at 20 µM [1, 6] was 62.9 ± 5.1% and the “pathway in open field” value [3] was “significant reduction”. The “locomotor activity over time” value [3] was “significant decrease”, the “Open Field Test No Evidence of Hyperlocomotion” value [3] was “+” and the “Sedative Effect The Rapid Onset of Sedation at a Dose of 100 mg/kg” value [3] was “+”. The “hyperlocomotion in open field” value [3] was “not (unlike groups with dizocilpine) observed hyperlocomotion” and the “NMDA lession Improvement in Cognition in AAPA after NMDA Lession” value ([4]; 1 mg/kg after NMDA lesion) was “−/+”.

With C[C@]12CC[C@@H](CC(=O)O)C[C@H]1CC[C@@H]1[C@@H]2CC[C@]2(C)C(=O)CC[C@@H]12 [Compound 74, 2-((3R,5R,8R,9S,10S,13S,14S)-10,13-Dimethyl-17-oxohexadecahydro-1H-cyclopenta[a]phenanthren-3-yl)acetic acid] the melting point was 130 to 133 °C, the inhibition at 50 µM [1, 6] was 58.6 ± 9.3% and the IC50 [1, 7] was 38.7 µM.

Molecule C=C(C)[C@H]1CC[C@H]2[C@@H]3CC[C@@H]4C[C@H](OC(=O)CC(=O)O)CC[C@]4(C)[C@H]3CC[C@]12C [Compound 88, 3-(((3R,5R,8R,9S,10S,13S,14S,17R)-10,13-Dimethyl-17-(prop-1-en-2-yl)hexadecahydro-4H-cyclopenta[a]phenanthren-3-yl)oxy)-3-oxopropanoic acid] has a melting point of 147.7 to 148.3 °C, an inhibition at 10 µM [1, 6] of 46 ± 0.9% and an IC50 [1, 7] of 11.8 µM.

In the case of C[C@H]1CC[C@H]2[C@@H]3CC[C@@H]4C[C@H](NC(=O)C(=O)[O-])CC[C@]4(C)[C@H]3CC[C@]12C.[Na+] [Compound 138, Sodium 2-oxo-2-(((3R,5R,8S,9S,10S,13R,14S,17S)-10,13,17-trimethylhexadecahydro-1H-cyclopenta[a]phenanthren-3-yl)amino)acetate], the melting point is reported as 330 to 334.6 °C, the inhibition at 1 µM [1, 6] is reported as 17.5 ± 1.8% and the IC50 [1, 7] is reported as 3.7 µM.

For C[C@H]1CC[C@H]2[C@@H]3CC[C@@H]4C[C@H](NC(=O)CC(=O)O)CC[C@]4(C)[C@H]3CC[C@]12C [Compound 140, 3-Oxo-3-(((3R,5R,8S,9S,10S,13R,14S,17S)-10,13,17-trimethylhexadecahydro-1H-cyclopenta[a]phenanthren-3-yl)amino)propanoic acid], the melting point was 147.8 to 149.4 °C, the inhibition at 1 µM [1, 6] was 17.8 ± 6.5% and the IC50 [1, 7] was 3.9 µM.

With CC[C@@H](C)C1CC[C@H]2[C@@H]3CC[C@@H]4C[C@H](NC(=O)C(=O)[O-])CC[C@]4(C)[C@H]3CC[C@]12C.[Na+] (stereo partly drawn) [Compound 148, Sodium 2-(((3R,5R,8R,9S,10S,13R,14S)-17-((R)-sec-butyl)-10,13-dimethylhexadecahydro-1H-cyclopenta[a]phenanthren-3-yl)amino)-2-oxoacetate] the melting point was 182 to 184 °C (dec.), the inhibition at 1 µM [1, 6] was 7.3 ± 3% and the IC50 [1, 7] was 9.4 µM.

In the case of CC[C@@H](C)C1CC[C@H]2[C@@H]3CC[C@@H]4C[C@H](NC(=O)CC(=O)O)CC[C@]4(C)[C@H]3CC[C@]12C (stereo partly drawn) [Compound 149, 3-(((3R,5R,8R,9S,10S,13R,14S)-17-((R)-Sec-butyl)-10,13-dimethylhexadecahydro-1H-cyclopenta[a]phenanthren-3-yl)amino)-3-oxopropanoic acid], the melting point is reported as 163 to 165 °C, the inhibition at 10 µM [1, 6] is reported as 33.6 ± 6.1% and the IC50 [1, 7] is reported as 18.3 µM.

For CNC1(c2ccccc2Cl)CCCCC1=O (stereo not drawn) [ketamine, reference compound], the “antidepressant effect (decrease of flotation)” value [5] was “showed antidepressant effect”.

With CC12CC3CC(C)(C1)CC(N)(C3)C2 [memantine, reference compound] the “maximum time avoidance, AAPA” value [4, 9] was “tendency to increase” and the “number of entries into the forbidden sector, AAPA” value [4, 9] was “reduced number of entries”.
